Measured values published in the kinase profiling compilation of Christmann-Franck et al. (2016).

Key:
Experiment in all cases: KINOMEscan competition binding
Settings in all cases: compound 10.0 µM
BLK (human) = BLK (human) (UniProt P51451)
BRSK2 (human) = BRSK2 (human) (UniProt Q8IWQ3)
CAMK1D (human) = CAMK1D (human) (UniProt Q8IU85)
CAMK2D (human) = CAMK2D (human) (UniProt Q13557)
CDC2L2 (human) = CDC2L2 (human) (UniProt Q9UQ88)
CDK9 (human) = CDK9 (human) (UniProt P50750)
CHEK1 (human) = CHEK1 (human) (UniProt O14757)
CLK1 (human) = CLK1 (human) (UniProt P49759)
CLK4 (human) = CLK4 (human) (UniProt Q9HAZ1)
CSNK1G2 (human) = CSNK1G2 (human) (UniProt P78368)
DDR1 (human) = DDR1 (human) (UniProt Q08345)
KDR (human) = KDR (human) (UniProt P35968)
MAP3K9 (human) = MAP3K9 (human) (UniProt P80192)
MAP4K4 (human) = MAP4K4 (human) (UniProt O95819)
MELK (human) = MELK (human) (UniProt Q14680)
MYLK (human) = MYLK (human) (UniProt Q15746)
PAK1 (human) = PAK1 (human) (UniProt Q13153)
PKN1 (human) = PKN1 (human) (UniProt Q16512)
PRKCD (human) = PRKCD (human) (UniProt Q05655)
PRKCQ (human) = PRKCQ (human) (UniProt Q04759)
PTK6 (human) = PTK6 (human) (UniProt Q13882)
RPS6KA1 KD2 (human) = RPS6KA1 KD2 (human) (UniProt Q15418)
STK24 (human) = STK24 (human) (UniProt Q9Y6E0)
STK32B (human) = STK32B (human) (UniProt Q9NY57)
STK4 (human) = STK4 (human) (UniProt Q13043)
CDK15 (human) = CDK15 (human) (UniProt Q96Q40)
FGFR2 (human) = FGFR2 (human) (UniProt P21802)
HIPK1 (human) = HIPK1 (human) (UniProt Q86Z02)
MAP4K2 (human) = MAP4K2 (human) (UniProt Q12851)
MAPK13 (human) = MAPK13 (human) (UniProt O15264)
ULK3 (human) = ULK3 (human) (UniProt Q6PHR2)

Chain of PTK6 (human) (Q13882 whole entry, looked up): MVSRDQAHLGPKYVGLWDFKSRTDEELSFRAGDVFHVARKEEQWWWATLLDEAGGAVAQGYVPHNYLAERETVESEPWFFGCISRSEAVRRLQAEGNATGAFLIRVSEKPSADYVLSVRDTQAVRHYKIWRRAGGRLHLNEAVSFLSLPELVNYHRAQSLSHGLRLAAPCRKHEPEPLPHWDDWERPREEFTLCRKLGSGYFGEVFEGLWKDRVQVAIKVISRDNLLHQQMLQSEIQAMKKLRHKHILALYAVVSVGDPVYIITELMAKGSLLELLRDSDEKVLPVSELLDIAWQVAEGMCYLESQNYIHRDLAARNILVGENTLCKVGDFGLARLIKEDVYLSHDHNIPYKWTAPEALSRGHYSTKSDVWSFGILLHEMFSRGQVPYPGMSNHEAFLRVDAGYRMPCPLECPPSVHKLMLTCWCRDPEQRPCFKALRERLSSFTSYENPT
Chain of CSNK1G2 (human) (P78368 whole entry, looked up): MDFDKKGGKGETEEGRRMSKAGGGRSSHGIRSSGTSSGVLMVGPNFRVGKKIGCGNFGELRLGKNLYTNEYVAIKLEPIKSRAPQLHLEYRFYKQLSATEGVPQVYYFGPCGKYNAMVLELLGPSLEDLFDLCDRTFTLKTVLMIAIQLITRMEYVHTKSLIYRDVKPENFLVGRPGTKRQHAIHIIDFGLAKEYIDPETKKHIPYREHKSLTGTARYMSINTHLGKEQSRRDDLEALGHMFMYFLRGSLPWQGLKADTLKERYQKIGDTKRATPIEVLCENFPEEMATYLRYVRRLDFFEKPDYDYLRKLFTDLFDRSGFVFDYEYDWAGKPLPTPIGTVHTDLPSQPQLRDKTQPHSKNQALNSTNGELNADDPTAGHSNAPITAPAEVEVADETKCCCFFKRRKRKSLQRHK
Chain of RPS6KA1 KD2 (human) (Q15418 whole entry, looked up): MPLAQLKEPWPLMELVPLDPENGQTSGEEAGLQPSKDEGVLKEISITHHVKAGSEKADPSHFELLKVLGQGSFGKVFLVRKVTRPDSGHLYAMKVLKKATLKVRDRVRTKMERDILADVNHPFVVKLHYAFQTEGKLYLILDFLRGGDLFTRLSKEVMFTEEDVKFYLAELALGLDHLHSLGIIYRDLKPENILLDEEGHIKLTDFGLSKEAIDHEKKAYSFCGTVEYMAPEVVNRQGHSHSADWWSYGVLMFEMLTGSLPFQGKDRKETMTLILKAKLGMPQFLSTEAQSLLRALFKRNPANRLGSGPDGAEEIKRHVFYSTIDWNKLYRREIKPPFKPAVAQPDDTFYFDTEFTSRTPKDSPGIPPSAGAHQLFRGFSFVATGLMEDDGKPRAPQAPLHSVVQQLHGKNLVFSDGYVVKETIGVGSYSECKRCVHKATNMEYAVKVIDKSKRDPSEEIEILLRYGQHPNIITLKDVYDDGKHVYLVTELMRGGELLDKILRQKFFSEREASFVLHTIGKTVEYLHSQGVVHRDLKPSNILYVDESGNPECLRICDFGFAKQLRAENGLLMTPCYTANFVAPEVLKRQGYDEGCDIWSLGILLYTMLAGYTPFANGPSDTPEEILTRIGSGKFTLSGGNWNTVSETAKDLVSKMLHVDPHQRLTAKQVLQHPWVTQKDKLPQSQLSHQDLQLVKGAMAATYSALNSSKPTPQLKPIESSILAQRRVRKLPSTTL
Chain of STK32B (human) (Q9NY57 whole entry, looked up): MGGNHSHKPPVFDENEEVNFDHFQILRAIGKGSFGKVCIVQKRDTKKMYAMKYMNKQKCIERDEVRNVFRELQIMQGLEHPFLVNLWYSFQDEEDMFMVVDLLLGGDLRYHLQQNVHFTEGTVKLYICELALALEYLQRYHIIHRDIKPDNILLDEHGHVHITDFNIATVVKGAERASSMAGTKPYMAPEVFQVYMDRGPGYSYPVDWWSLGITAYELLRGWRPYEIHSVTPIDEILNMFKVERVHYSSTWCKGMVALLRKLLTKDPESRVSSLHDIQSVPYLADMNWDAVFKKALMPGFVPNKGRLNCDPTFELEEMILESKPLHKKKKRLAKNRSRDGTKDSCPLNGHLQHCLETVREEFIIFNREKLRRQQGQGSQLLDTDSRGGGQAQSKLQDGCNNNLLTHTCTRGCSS
Chain of PRKCD (human) (Q05655 whole entry, looked up): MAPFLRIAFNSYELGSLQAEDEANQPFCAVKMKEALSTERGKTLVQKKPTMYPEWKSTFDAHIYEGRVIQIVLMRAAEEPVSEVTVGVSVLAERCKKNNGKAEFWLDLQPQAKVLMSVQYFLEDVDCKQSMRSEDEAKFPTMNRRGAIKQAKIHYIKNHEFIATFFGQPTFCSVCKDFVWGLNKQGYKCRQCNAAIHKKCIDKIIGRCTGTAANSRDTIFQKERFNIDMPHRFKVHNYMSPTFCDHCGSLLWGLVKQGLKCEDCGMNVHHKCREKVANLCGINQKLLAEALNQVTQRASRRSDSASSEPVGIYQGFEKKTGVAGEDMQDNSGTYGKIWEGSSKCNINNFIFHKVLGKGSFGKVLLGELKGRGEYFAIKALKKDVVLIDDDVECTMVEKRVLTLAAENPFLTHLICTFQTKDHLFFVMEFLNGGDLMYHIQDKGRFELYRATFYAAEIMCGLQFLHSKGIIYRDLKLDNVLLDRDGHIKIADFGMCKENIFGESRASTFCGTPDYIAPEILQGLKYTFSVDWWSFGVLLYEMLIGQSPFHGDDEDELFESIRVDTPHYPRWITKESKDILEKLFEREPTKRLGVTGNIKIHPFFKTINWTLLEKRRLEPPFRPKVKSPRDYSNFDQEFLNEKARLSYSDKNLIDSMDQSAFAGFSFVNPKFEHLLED
Chain of MAP3K9 (human) (P80192 whole entry, looked up): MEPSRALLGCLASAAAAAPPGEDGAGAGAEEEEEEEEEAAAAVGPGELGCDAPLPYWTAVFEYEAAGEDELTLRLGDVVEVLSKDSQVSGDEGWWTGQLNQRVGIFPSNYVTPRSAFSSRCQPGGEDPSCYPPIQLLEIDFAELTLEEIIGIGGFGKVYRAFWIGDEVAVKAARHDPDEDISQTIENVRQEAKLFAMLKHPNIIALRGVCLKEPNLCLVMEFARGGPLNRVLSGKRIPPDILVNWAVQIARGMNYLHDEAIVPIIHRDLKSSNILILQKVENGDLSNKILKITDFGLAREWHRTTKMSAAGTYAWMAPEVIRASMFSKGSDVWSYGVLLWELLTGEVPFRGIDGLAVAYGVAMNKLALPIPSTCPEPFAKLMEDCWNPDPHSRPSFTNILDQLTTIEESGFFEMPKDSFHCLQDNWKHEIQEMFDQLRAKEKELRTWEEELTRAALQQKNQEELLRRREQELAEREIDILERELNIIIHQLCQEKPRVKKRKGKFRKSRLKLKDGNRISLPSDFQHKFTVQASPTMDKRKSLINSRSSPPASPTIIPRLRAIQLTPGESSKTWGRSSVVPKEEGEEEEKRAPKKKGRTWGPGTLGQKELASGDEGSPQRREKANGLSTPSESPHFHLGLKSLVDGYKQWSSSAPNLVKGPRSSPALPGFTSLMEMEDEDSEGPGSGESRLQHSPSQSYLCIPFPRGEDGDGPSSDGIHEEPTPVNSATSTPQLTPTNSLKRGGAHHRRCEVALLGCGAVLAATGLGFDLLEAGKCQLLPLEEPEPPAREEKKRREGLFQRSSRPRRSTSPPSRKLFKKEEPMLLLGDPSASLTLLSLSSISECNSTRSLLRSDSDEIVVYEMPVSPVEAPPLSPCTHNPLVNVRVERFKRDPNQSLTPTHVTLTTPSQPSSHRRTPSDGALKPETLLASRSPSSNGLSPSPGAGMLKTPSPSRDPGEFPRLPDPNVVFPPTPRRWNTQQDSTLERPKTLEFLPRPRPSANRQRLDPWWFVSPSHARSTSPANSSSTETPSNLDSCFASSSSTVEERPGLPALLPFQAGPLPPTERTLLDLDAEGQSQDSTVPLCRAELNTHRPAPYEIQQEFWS
Chain of MAP4K4 (human) (O95819 whole entry, looked up): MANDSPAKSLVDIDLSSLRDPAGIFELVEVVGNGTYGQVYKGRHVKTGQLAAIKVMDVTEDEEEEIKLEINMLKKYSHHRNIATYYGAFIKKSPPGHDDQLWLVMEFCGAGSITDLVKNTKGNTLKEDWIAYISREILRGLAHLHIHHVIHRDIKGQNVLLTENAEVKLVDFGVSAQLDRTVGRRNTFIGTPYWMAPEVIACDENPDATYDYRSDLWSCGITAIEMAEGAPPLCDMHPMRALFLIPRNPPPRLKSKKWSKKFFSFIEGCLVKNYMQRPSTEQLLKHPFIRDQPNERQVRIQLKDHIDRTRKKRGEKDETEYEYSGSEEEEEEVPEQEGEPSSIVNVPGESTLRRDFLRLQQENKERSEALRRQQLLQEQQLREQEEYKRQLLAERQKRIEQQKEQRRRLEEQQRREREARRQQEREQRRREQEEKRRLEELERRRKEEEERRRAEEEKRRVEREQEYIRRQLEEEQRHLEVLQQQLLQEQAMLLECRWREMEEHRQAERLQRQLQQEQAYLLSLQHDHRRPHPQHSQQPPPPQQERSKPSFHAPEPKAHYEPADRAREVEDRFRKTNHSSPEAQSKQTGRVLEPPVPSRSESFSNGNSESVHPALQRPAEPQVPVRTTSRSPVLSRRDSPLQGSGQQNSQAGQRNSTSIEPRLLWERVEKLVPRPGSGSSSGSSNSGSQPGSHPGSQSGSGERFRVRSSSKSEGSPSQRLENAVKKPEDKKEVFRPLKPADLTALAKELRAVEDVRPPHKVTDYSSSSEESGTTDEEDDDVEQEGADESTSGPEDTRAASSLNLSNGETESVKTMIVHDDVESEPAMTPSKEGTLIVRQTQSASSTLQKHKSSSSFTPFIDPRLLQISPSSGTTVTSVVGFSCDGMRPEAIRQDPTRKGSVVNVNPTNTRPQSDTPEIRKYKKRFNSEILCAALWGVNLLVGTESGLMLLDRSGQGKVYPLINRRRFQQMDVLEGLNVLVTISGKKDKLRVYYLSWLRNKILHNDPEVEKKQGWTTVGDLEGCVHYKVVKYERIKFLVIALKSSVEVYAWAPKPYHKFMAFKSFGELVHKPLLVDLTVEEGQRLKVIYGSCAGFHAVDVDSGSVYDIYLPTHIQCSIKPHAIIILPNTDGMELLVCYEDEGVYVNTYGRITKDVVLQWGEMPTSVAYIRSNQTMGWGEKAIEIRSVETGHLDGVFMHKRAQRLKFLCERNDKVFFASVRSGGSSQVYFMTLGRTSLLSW

Row | SMILES | kinase still bound, per cent of control (BRSK2 (human)) [%] | kinase still bound, per cent of control (CAMK1D (human)) [%] | kinase still bound, per cent of control (CAMK2D (human)) [%] | kinase still bound, per cent of control (CDC2L2 (human)) [%] | kinase still bound, per cent of control (CDK9 (human)) [%] | kinase still bound, per cent of control (CHEK1 (human)) [%] | kinase still bound, per cent of control (CLK1 (human)) [%] | kinase still bound, per cent of control (CLK4 (human)) [%] | kinase still bound, per cent of control (CSNK1G2 (human)) [%] | kinase still bound, per cent of control (DDR1 (human)) [%] | kinase still bound, per cent of control (KDR (human)) [%] | kinase still bound, per cent of control (MAP3K9 (human)) [%] | kinase still bound, per cent of control (MAP4K4 (human)) [%] | kinase still bound, per cent of control (MELK (human)) [%] | kinase still bound, per cent of control (MYLK (human)) [%] | kinase still bound, per cent of control (PAK1 (human)) [%] | kinase still bound, per cent of control (PKN1 (human)) [%] | kinase still bound, per cent of control (PRKCD (human)) [%] | kinase still bound, per cent of control (PRKCQ (human)) [%] | kinase still bound, per cent of control (PTK6 (human)) [%] | also measured
1 | CCN(CC)CCCCNc1ncc2cc(-c3cc(OC)cc(OC)c3)c(NC(=O)NC(C)(C)C)nc2n1 | 100 | 100 | 100 | 100 | 100 | 100 | 100 | 100 | 100 | 1.1 | 21 | 100 | 100 | 100 | 100 | 100 | 100 | 100 | 100 | 100 | kinase still bound, per cent of control (BLK (human)): 100%; kinase still bound, per cent of control (RPS6KA1 KD2 (human)): 100%; kinase still bound, per cent of control (STK24 (human)): 7%; kinase still bound, per cent of control (STK32B (human)): 100%; kinase still bound, per cent of control (STK4 (human)): 100%
2 | Cc1n[nH]c2ccc(-c3cncc(OC[C@@H](N)Cc4c[nH]c5ccccc45)c3)cc12 | 100 | 11 | 2.5 | 100 | 1.9 | 100 | 0 | 2.6 | 0.65 | 100 | 100 | 100 | 2.2 | 12 | 0.1 | 6.2 | 0 | 0.85 | 0 | 100 | kinase still bound, per cent of control (CDK15 (human)): 16%; kinase still bound, per cent of control (FGFR2 (human)): 100%; kinase still bound, per cent of control (HIPK1 (human)): 0.05%; kinase still bound, per cent of control (MAP4K2 (human)): 8.8%; kinase still bound, per cent of control (MAPK13 (human)): 4.4%; kinase still bound, per cent of control (RPS6KA1 KD2 (human)): 100%; kinase still bound, per cent of control (STK24 (human)): 100%; kinase still bound, per cent of control (STK32B (human)): 100%; kinase still bound, per cent of control (STK4 (human)): 100%; kinase still bound, per cent of control (ULK3 (human)): 100%
